Measured values published in patent US6506772B1, “Substituted [1,2,4]triazolo[1,5a]pyridine derivatives with activity as adenosine receptor ligands” (Hoffmann-La Roche Inc., priority 2000, dated 2003).
Read-outs that look alike come from different tables or passages of the source.

What was measured:
[1] = target: T1, human adenosine A2A receptor (Homo sapiens, UniProt P29274); experiment: Human adenosine A2A receptor [3H]-SCH-58261 binding assay
T1 construct: expressed in transfected cells; host or cells: CHO cells, Semliki Forest virus expression system; membrane preparation
T1 sequence (P29274 whole entry): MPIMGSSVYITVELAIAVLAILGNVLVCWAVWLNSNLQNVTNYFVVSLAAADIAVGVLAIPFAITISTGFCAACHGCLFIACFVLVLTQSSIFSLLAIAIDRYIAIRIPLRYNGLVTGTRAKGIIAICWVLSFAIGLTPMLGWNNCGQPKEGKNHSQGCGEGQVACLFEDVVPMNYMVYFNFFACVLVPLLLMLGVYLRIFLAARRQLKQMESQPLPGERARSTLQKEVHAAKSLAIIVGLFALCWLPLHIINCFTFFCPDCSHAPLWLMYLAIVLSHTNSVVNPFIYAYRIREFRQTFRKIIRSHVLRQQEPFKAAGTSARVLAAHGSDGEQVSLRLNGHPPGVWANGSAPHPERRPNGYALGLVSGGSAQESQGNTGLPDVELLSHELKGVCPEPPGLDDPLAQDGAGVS

[2] = target: T2, HA1 adenosine receptor (Homo sapiens, UniProt P30542); experiment: Human adenosine A1 receptor affinity (Ki hA1); assay type: binding
T2 sequence (P30542 1-326): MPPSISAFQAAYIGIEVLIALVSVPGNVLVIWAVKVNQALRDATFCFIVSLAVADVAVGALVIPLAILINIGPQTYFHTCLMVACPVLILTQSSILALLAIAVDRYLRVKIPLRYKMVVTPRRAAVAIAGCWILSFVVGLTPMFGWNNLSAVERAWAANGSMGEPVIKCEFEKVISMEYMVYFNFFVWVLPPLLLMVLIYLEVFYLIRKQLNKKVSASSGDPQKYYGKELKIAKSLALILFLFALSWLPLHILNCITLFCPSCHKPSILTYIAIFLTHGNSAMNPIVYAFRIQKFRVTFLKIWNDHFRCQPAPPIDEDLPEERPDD

[3] = affinity to human adenosine A2A receptor, read-out: Ki HA2A
[4] = calculated ratio of the affinity to the HA1 receptor to the HA2a receptor
[5] = affinity to human adenosine A1 receptor
[6] = recombinant human A2A in CHO cell membranes, [3H]-SCH-58261, Cheng-Prussoff, read-out: Ki hA2A

Ki [1, 3] | selectivity (A1/A2a) [1, 4] | Ki [2, 5] | selectivity (A1/A2a) ([1]; ratio KiHA1 divided by KiHA2A) | Ki [1, 6] | Ki [2] | SMILES
5.8 nM | 28.8 | 167 nM |  |  |  | Nc1cc(C(=O)N2CCC3CCCCC3C2)cc2nc(-c3ccc(Br)o3)nn12 (stereo not drawn) [Example 350]
2.9 nM | 26.7 | 77.3 nM |  |  |  | CC(C)N(C(=O)c1cc(N)n2nc(-c3ccc(Br)o3)nc2c1)C1CCCCC1 [Example 351, 5-Amino-2-(5-bromo-furan-2-yl)-[1,2,4]triazolo[1,5-a]pyridine-7-carboxylic acid cyclohexyl-isopropyl-amide]
81.5 nM | 12.7 | 1040 nM |  |  |  | Nc1cc(C(=O)N2CCN(c3ccccc3)CC2)cc2nc(-c3ccc(Br)o3)nn12 [Example 353, [5-Amino-2-(5-bromo-furan-2-yl)-[1,2,4]triazolo[1,5-a]pyridin-7-yl]-(4-phenyl-piperazin-1-yl)-methanone]
2.9 nM | 15.7 | 45.5 nM |  |  |  | Nc1cc(C(=O)N2CCCCC2c2cccnc2)cc2nc(-c3ccc(Br)o3)nn12 (stereo not drawn) [Example 354, [5-Amino-2-(5-bromo-furan-2-yl)-[1,2,4]triazolo[1,5-a]pyridin-7-yl]-(3,4,5,6-tetrahydro-2H-[2,3′]bipyridinyl-1-yl)-methanone]
47 nM | 6.1 | 286 nM |  |  |  | Nc1cc(C(=O)N2CCc3c([nH]c4ccccc34)C2)cc2nc(-c3ccc(Br)o3)nn12 [Example 355, [5-Amino-2-(5-bromo-furan-2-yl)-[1,2,4]triazolo[1,5-a]pyridin-7-yl]-(1,3,4,9-tetrahydro-b-carbolin-2-yl)-methanone]
74.7 nM | 23.0 | 1720 nM |  |  |  | C[C@@H]1CCC[C@H](C)N1C(=O)c1cc(N)n2nc(-c3nccs3)nc2c1 [Example 358, (5-Amino-2-thiazol-2-yl-[1,2,4]triazolo[1,5-a]pyridin-7-yl)-(cis-2,6-dimethyl-piperidin-1-yl)-methanone]
7.3 nM | 128.0 | 934 nM |  |  |  | C[C@@H]1CC[C@@H](C)N1C(=O)c1cc(N)n2nc(-c3ccc(Br)o3)nc2c1 [Example 359, [5-Amino-2-(5-bromo-furan-2-yl)-[1,2,4]triazolo[1,5-a]pyridin-7-yl]-[(2R,5R)-trans-2,5-dimethyl-pyrrolidin-1-yl]-methanone]
7.7 nM | 54.9 | 422 nM |  |  |  | C[C@@H]1CN(C(=O)c2cc(N)n3nc(-c4ccc(Br)o4)nc3c2)C[C@H](C)O1 [Example 360, [5-Amino-2-(5-bromo-furan-2-yl)-[1,2,4]triazolo[1,5-a]pyridin-7-yl]-(cis-2,6-dimethyl-morpholin-4-yl)-methanone]
 |  |  | 17.2 | 33.5 nM | 577 nM | Nc1cc(C(=O)N2CCCC3CCCCC32)cc2nc(-c3nccs3)nn12 (stereo not drawn) [Example 379, (5-Amino-2-thiazol-2-yl-[1,2,4]triazolo[1,5-a]pyridin-7-yl)-(octahydro-quinolin-1-yl)-methanone]
 |  |  | 24.8 | 76.9 nM | 1910 nM | Nc1cc(C(=O)N2CCC3CCCCC3C2)cc2nc(-c3nccs3)nn12 (stereo not drawn) [Example 380, (5-Amino-2-thiazol-2-yl-[1,2,4]triazolo[1,5-a]pyridin-7-yl)-(octahydro-isoquinolin-2-yl)-methanone]
 |  |  | 11.4 | 180 nM | 2050 nM | CCN(CC)C(=O)C1CCCN(C(=O)c2cc(N)n3nc(-c4nccs4)nc3c2)C1 (stereo not drawn) [Example 381, 1-(5-Amino-2-thiazol-2-yl-[1,2,4]triazolo[1,5-a]pyridine-7-carbonyl)-piperidine-3-carboxylic acid diethylamide]
 |  |  | 13.4 | 54.6 nM | 729 nM | C=CCN(C(=O)c1cc(N)n2nc(-c3nccs3)nc2c1)C1CCCC1 [Example 382, 5-Amino-2-thiazol-2-yl-[1,2,4]triazolo[1,5-a]pyridine-7-carboxylic acid allyl-cyclopentyl-amide]
